Experimental data taken from patent US20240269298A1, “PHOSPHONYL DERIVATIVE, AND COMPOSITION AND PHARMACEUTICAL APPLICATION THEREOF” (XIZANG HAISCO PHARMACEUTICAL CO., LTD., priority 2021, published 2024).
Read-outs that look alike come from different tables or passages of the source.

Tests used:
[1] = test system: NCI-H1975 (EGFR-L858R-T790M) cells; test: Inhibitory activity on proliferation of NCI-H1975 (EGFR-L858R-T790M) cells (CTG, 72 h); type: cell-based; conditions: Homo sapiens
Procedure, shortened: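 Cells plated at 1000/well (NCI-H1975, RPMI1640+10% FBS) or 3000/well (A431, DMEM+10% FBS), dosed next day with compounds (0.1% DMSO final) for 72 h at 37 °C, 5% CO2. Viability by CTG luminescence, normalised to vehicle control; IC50 from nonlinear-regression dose-survival curves.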

A431 (EGFR-WT) cells = test: Inhibitory activity on proliferation of A431 (EGFR-WT) cells (CTG, 72 h); type: cell-based; conditions: Homo sapiens, A-431
Method: NCI-H1975 (EGFR-L858R-T790M) and A431 (EGFR-WT) cells were purchased from ATCC and cultured in an incubator at 37° C. with 5% CO2, and the culture mediums were RPMI1640+10% FBS and DMEM+10% FBS, respectively. On the first day, NCI-H1975 (EGFR-L858R-T790M) and A431 (EGFR-WT) cells in the logarithmic phase were collected, and viable cells were counted using an automatic cell analyzer (countstar). The cell suspensions were adjusted with the culture mediums and plated on a 96-well cell culture plate at 1000 cells/well for NCI-H1975 (EGFR-L858R-T790M) cells and at 3000 cells/well for A431 cells. The next day, the culture mediums were aspirated, and 90 μL of fresh culture mediums and 10 μL of the compounds at different concentrations were added to each well, wherein the final concentration of DMSO in each well was 0.1%. The plate was cultured in the incubator at 37° C. with 5% CO2 for 72 hours. After 72 hours of drug treatment, 50 μL of CTG solution (promega, G7572), which was already pre-melted and equilibrated to room temperature, was added to each well, and the mixtures were uniformly mixed for 2 min using a microplate shaker. The plate was placed at room temperature for 10 min, and then […] signal values were measured using a microplate reader (PHERAstar FSX).
Surviving cells % was calculated based on Vsample/Vvehicle control×100%, wherein Vsample was the readout of the drug-treated group, and Vvehicle control was the average value of the vehicle control group. Using the origin 9.2 software and nonlinear regression model, S-shaped dose-survival curves were plotted, and IC50 values were calculated.

[2] = read-out: IC50 (value in brackets)

Row | SMILES | IC50 ([1]; read-out: IC50 (class symbol)) [nM] | IC50 [1, 2] [nM] | IC50 (A431 (EGFR-WT) cells) [µM]
1 | COc1cc(N2CCN(c3ccc4c(c3)C(=O)N(C3CCC(=O)NC3=O)C4=O)CC2)c(-c2cnn(C)c2)cc1Nc1ncc(Br)c(Nc2ccc(C3CC3)cc2P(C)(C)=O)n1 (stereo not drawn) [Compound 166, 5-(4-(4-((5-bromo-4-((4-cyclopropyl-2-(dimethylphosphoryl)phenyl)amino)pyrimidin-2-yl)amino)-5-methoxy-2-(1-methyl-1H-pyrazol-4-yl)phenyl)piperazin-1-yl)-2-(2,6-dioxopiperidin-3-yl)isoindoline-1,3-dione] | 100 to 500 | 115 | ≥ 10
2 | COc1cc(N2CCC(C(=O)N3CCN(c4ccc5c(c4)C(=O)N(C4CCC(=O)NC4=O)C5=O)CC3)CC2)c(-c2cnn(C)c2)cc1Nc1ncc(Br)c(Nc2ccccc2P(C)(C)=O)n1 (stereo not drawn) [Compound 146, 5-(4-(1-(4-((5-bromo-4-((2-(dimethylphosphoryl)phenyl)amino)pyrimidin-2-yl)amino)-5-methoxy-2-(1-methyl-1H-pyrazol-4-yl)phenyl)piperidine-4-carbonyl)piperazin-1-yl)-2-(2,6-dioxopiperidin-3-yl)isoindoline-1,3-dione] | < 100 | 95 | ≥ 10
3 | COc1cc(N2CCC(CN3CCN(c4cc5c(cc4F)C(=O)N(C4CCC(=O)NC4=O)C5=O)CC3)CC2)c(-c2cnn(C)c2)cc1Nc1ncc(Cl)c(Nc2ccc(C3CC3)cc2P(C)(C)=O)n1 (stereo not drawn) [Compound 160, 5-(4-((1-(4-((5-chloro-4-((4-cyclopropyl-2-(dimethylphosphoryl)phenyl)amino)pyrimidin-2-yl)amino)-5-methoxy-2-(1-methyl-1H-pyrazol-4-yl)phenyl)piperidin-4-yl)methyl)piperazin-1-yl)-2-(2,6-dioxopiperidin-3-yl)-6-fluoroisoindoline-1,3-dione] | 100 to 500 | 152 | ≥ 10
4 | COc1cc(N2CCN(C3CCC4(CC3)CCN(c3ccc5c(c3)C(=O)N(C3CCC(=O)NC3=O)C5=O)CC4)CC2)c(-c2cnn(C)c2)cc1Nc1ncc(Br)c(Nc2ccc(-c3ccccc3)cc2P(C)(C)=O)n1 (stereo not drawn) [Compound 85, 5-(9-(4-(4-((5-bromo-4-((3-(dimethylphosphoryl)-[1,1′-biphenyl]-4-yl)amino)pyrimidin-2-yl)amino)-5-methoxy-2-(1-methyl-1H-pyrazol-4-yl)phenyl)piperazin-1-yl)-3-azaspiro [5.5]undecan-3-yl)-2-(2,6-dioxopiperidin-3-yl)isoindoline-1,3-dione] | < 100 | 77 | ≥ 10
5 | COc1cc(N2CCN(C3CN(c4ccc5c(c4)C(=O)N(C4CCC(=O)NC4=O)C5=O)C3)CC2)c(-c2cnn(C)c2)cc1Nc1ncc(Br)c(Nc2ccc(C3CC3)cc2P(C)(C)=O)n1 (stereo not drawn) [Compound 150, 5-(3-(4-(4-((5-bromo-4-((4-cyclopropyl-2-(dimethylphosphoryl)phenyl)amino)pyrimidin-2-yl)amino)-5-methoxy-2-(1-methyl-1H-pyrazol-4-yl)phenyl)piperazin-1-yl)azetidin-1-yl)-2-(2,6-dioxopiperidin-3-yl)isoindoline-1,3-dione] | < 100 | 40 | ≥ 10
6 | COc1cc(N2CCC(C3CCN(C4CC5(CCN(c6ccc7c(c6)C(=O)N(C6CCC(=O)NC6=O)C7=O)CC5)C4)CC3)CC2)c(-c2cnn(C)c2)cc1Nc1ncc(Cl)c(Nc2ccc3nccnc3c2P(C)(C)=O)n1 (stereo not drawn) [Trifluoroacetate of compound 14, 5-(2-(1′-(4-((5-chloro-4-((5-(dimethylphosphoryl)quinoxalin-6-yl)amino)pyrimidin-2-yl)amino)-5-methoxy-2-(1-methyl-1H-pyrazol-4-yl)phenyl)-[4,4′-bipiperidin]-1-yl)-7-azaspiro[3.5]nonan-7-yl)-2-(2,6-dioxopiperidin-3-yl)isoindoline-1,3-dione] | < 100 | 49 | ≥ 10
7 | COc1cc(N2CCC(N3CCN(CC4CCN(c5ccc6c(c5)C(=O)N(C5CCC(=O)NC5=O)C6=O)CC4)CC3)CC2)c(-c2cnn(C)c2)cc1Nc1ncc(Cl)c(Nc2ccc3nccnc3c2P(C)(C)=O)n1 (stereo not drawn) [Compound 4, 5-(4-((4-(1-(4-((5-chloro-4-((5-(dimethylphosphoryl)quinoxalin-6-yl)amino)pyrimidin-2-yl)amino)-5-methoxy-2-(1-methyl-1H-pyrazol-4-yl)phenyl)piperidin-4-yl)piperazin-1-yl)methyl)piperidin-1-yl)-2-(2,6-dioxopiperidin-3-yl)isoindoline-1,3-dione] | < 100 | 21 | ≥ 10
8 | COc1cc(N2CCC(N3CCN(CC4CCN(c5ccc6c(c5)C(=O)N(C5CCC(=O)NC5=O)C6=O)C4)CC3)CC2)c(C2CC2)cc1Nc1ncc(Br)c(Nc2ccc3nccnc3c2P(C)(C)=O)n1 (stereo not drawn) [Compound 35, 5-(3-((4-(1-(4-((5-bromo-4-((5-(dimethylphosphoryl)quinoxalin-6-yl)amino)pyrimidin-2-yl)amino)-2-cyclopropyl-5-methoxyphenyl)piperidin-4-yl)piperazin-1-yl)methyl)pyrrolidin-1-yl)-2-(2,6-dioxopiperidin-3-yl)isoindoline-1,3-dione] | 100 to 500 | 114 | ≥ 10
9 | COc1cc(N2CCC(CN3CCC4(CCCN(c5cc6c(cc5F)C(=O)N(C5CCC(=O)NC5=O)C6=O)C4)CC3)CC2)c(-c2cnn(C)c2)cc1Nc1ncc(Br)c(Nc2ccc(-c3ccccc3)cc2P(C)(C)=O)n1 (stereo not drawn) [Compound 61, 5-(9-((1-(4-((5-bromo-4-((3-(dimethylphosphoryl)-[1,1′-biphenyl]-4-yl)amino)pyrimidin-2-yl)amino)-5-methoxy-2-(1-methyl-1H-pyrazol-4-yl)phenyl)piperidin-4-yl)methyl)-2,9-diazaspiro[5.5]undecan-2-yl)-2-(2,6-dioxopiperidin-3-yl)-6-fluoroisoindoline-1,3-dione] | 100 to 500 | 176 | ≥ 10
10 | COc1cc(N2CCN(C[C@H]3CCN(c4ccc5c(c4)C(=O)N(C4CCC(=O)NC4=O)C5=O)C3)CC2)c(-c2cnn(C)c2)cc1Nc1ncc(Cl)c(Nc2ccc(-c3ccccc3)cc2P(C)(C)=O)n1 (stereo partly drawn) [Compound 118, 5-((R)-3-((4-(4-((5-chloro-4-((3-(dimethylphosphoryl)-[1,1′-biphenyl]-4-yl)amino)pyrimidin-2-yl)amino)-5-methoxy-2-(1-methyl-1H-pyrazol-4-yl)phenyl)piperazin-1-yl)methyl)pyrrolidin-1-yl)-2-(2,6-dioxopiperidin-3-yl)isoindoline-1,3-dione] | < 100 | 40 | ≥ 10
11 | COc1cc(N2CCN(C[C@H]3CCN(c4ccc5c(c4)C(=O)N(C4CCC(=O)NC4=O)C5=O)C3)CC2)c(-c2cnn(C)c2)cc1Nc1ncc(Br)c(Nc2ccc(C3CC3)cc2P(C)(C)=O)n1 (stereo partly drawn) [Compound 121, 5-((R)-3-((4-(4-((5-bromo-4-((4-cyclopropyl-2-(dimethylphosphoryl)phenyl)amino)pyrimidin-2-yl)amino)-5-methoxy-2-(1-methyl-1H-pyrazol-4-yl)phenyl)piperazin-1-yl)methyl)pyrrolidin-1-yl)-2-(2,6-dioxopiperidin-3-yl)isoindoline-1,3-dione] | < 100 | 16 | ≥ 10
12 | COc1cc(N2CCC(N3CCN(CC4CCN(c5ccc6c(c5)C(=O)N(C5CCC(=O)NC5=O)C6=O)C4)CC3)CC2)c(-c2cnn(C)c2)cc1Nc1ncc(Br)c(Nc2ccc3nccnc3c2P(C)(C)=O)n1 (stereo not drawn) [Compound 30, 5-(3-((4-(1-(4-((5-bromo-4-((5-(dimethylphosphoryl)quinoxalin-6-yl)amino)pyrimidin-2-yl)amino)-5-methoxy-2-(1-methyl-1H-pyrazol-4-yl)phenyl)piperidin-4-yl)piperazin-1-yl)methyl)pyrrolidin-1l-yl)-2-(2,6-dioxopiperidin-3-yl)isoindoline-1,3-dione] | < 100 | 12 | ≥ 10
13 | COc1cc(N2CCN(CC3CCN(c4ccc5c(c4)C(=O)N(C4CCC(=O)NC4=O)C5=O)CC3)CC2)c(-c2cnn(C)c2)cc1Nc1ncc(Cl)c(Nc2ccc(C3CC3)cc2P(C)(C)=O)n1 (stereo not drawn) [Compound 126, 5-(4-((4-(4-((5-chloro-4-((4-cyclopropyl-2-(dimethylphosphoryl)phenyl)amino)pyrimidin-2-yl)amino)-5-methoxy-2-(1-methyl-1H-pyrazol-4-yl)phenyl)piperazin-1-yl)methyl)piperidin-1-yl)-2-(2,6-dioxopiperidin-3-yl)isoindoline-1,3-dione] | < 100 | 39 | ≥ 10
